Measurements published in US20220169639A1 (priority 2018, published 2022).

Columns and labels:
[1] = test system: HBeAg (surrogate marker for cccDNA) in HepDES19 cells; assay: Engineered HepDES19 primary screen assay (HBeAg ELISA); format: cell-based, HBV; details: Hepatitis B virus, 120 h, HBeAg in culture supernatant, 5 days incubation, read-out: IC50 (HepDES19 primary screen assay, inhibition of extracellular HBeAg level)
In short: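 HepDES19 cells pre-induced by Tet withdrawal for 8 days, frozen, then seeded and dosed after 24 h with half-log compound dilutions (1% DMSO final). After 5 days at 37 °C, HBeAg measured by ELISA and viability by CCK-8; IC50 from 4-parameter logistic fit.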

[2] = test system: HBV (HBsAg) in HBV-infected PHH; assay: Cryopreserved primary human hepatocytes (PHH) HBV infection assay, extracellular HBsAg (CLIA); format: cell-based; details: Hepatitis B virus, Hepatocyte, 216 h, read-out: HBsAg IC50
Method: This assay is used to confirm the anti-HBV effect of the compounds in HBV PHH infection assay. Cryopreserved PHH (BioreclamationIVT, Lot YJM) was thawed at 37° C. and gently transferred into pre-warmed InVitroGRO HT medium (BioreclamationIVT, Cat. S03317). The mixture was centrifuged at 70 relative centrifugal force (RCF) for 3 minutes at RT, and the supernatant was discarded. Pre-warmed InVitroGRO CP medium (BioreclamationIVT, Cat #S03316) was added to the cell pellet to gently re-suspend cells. The cells were seeded at the density of 5.8×10^4 cells per well to collagen I coated 96-well plate (Gibco, Cat. A1142803) with the InVitroGRO CP medium. All plates were incubated at 37° C. with 5% CO2 and 85% humidity.
At 20 hours after plating, the medium was changed to PHH culture medium (Dulbecco's Modified Eagle Medium (DMEM)/F12 (1:1) (Gibco, Cat. 11320-033), 10% fetal bovine serum (Gibco Cat. 10099141), 100 U/mL penicillin, 100 μg/mL streptomycin (Gibco, Cat. 151401-122), 5 ng/mL human epidermal growth factor (Invitrogen Cat. PHG0311L), 20 ng/mL dexamethasone (Sigma, Cat. D4902) and 250 ng/mL human recombinant insulin (Gibco, Cat. 12585-014)). And the cells were incubated at 37° C. with 5% CO2 and 85% humidity for 4 hours. The medium was then changed to pre-warmed PHH culture medium containing 4% polyethylene glycol (PEG) MW8000 (Sigma, Cat. P1458-50ML) and 1% DMSO (Sigma, Cat. D2650). 5.8×10^6 genomic equivalents of HBV were added into the medium.
At 24 hours post-infection, the cells were gently washed with PBS and refreshed with PHH culture medium supplemented with 1% DMSO, and 0.25 mg/mL Matrix gel (Corning, Cat. 356237) at 200 μL per well. All plates were immediately placed in at 37° C. CO2 incubator. 24 hours later, serial dilutions of compounds made with DMSO were further diluted with the same culture medium (PHH culture medium supplemented with 1% DMSO and 0.25 mg/mL Matrix gel as described above) before they were added to the cells to reach desired final compound concentrations and 1% DMSO concentration. The medium containing the compounds were refreshed every three days.
At 9 days post-compound treatment, extracellular HBsAg level were measured with Chemiluminescence Immuno Assay (CLIA) kit (Autobio, HBsAg Quantitative CLIA). Extracellular HBV DNA was extracted by MagNA Pure 96 system (Roche) and then determined
HBsAg IC50 and HBV DNA IC50 values were derived from the dose-response curve using 4 parameter logistic curve fit method. The compounds of formula (I) have HBsAg IC50<20 μM, particularly <1 μM; and HBV DNA IC50<50 μM. Results of Cryopreserved PHH assay are given in TableBIO2.

Compound	IC50 [1] [µM]	IC50 [2] [µM]
NC(=O)C(=O)NCCOc1cc(C(F)(F)F)ccc1-c1cc(=O)c2cccc(Cl)c2o1 [Example 146, N′-[2-[2-(8-chloro-4-oxo-chromen-2-yl)-5-(trifluoromethyl)phenoxy]ethyl]oxamide]	0.33	7.08
O=C(O)[C@H]1CCN(CCOc2cc(Br)ccc2-c2cc(=O)c3c(C(F)(F)F)ccc(Cl)c3o2)C1 [Example 042, (3S)-1-[2-[5-bromo-2-[8-chloro-4-oxo-5-(trifluoromethyl)chromen-2-yl]phenoxy]ethyl]pyrrolidine-3-carboxylic acid]	0.05	7.3
COc1cc(Cl)c2oc(-c3ccc(C(F)(F)F)cc3OCCCNC(=O)C(=O)O)cc(=O)c2c1 [Example 116]	1.8	3.41
CS(=O)(=O)C1CCN(CCOc2cc(Br)ccc2-c2cc(=O)c3cccc(Cl)c3o2)C1 (stereo not drawn) [Example 084]	0.59	3.48
CC(=O)N1CCN(CCOc2cc(Br)ccc2-c2cc(=O)c3cccc(Cl)c3o2)CC1 [Example 082]	0.24	7.56
O=C(O)C(=O)N1CC[C@H](Oc2cc(C(F)(F)F)ccc2-c2cc(=O)c3cccc(Cl)c3o2)C1 [Example 126, 2-oxo-2-[(3S)-3-[2-(8-chloro-4-oxo-chromen-2-yl)-5-(trifluoromethyl)phenoxy]pyrrolidin-1-yl]acetic acid]	0.91	4.21
O=C(O)C1CCC(NCCCOc2cc(C(F)(F)F)ccc2-c2cc(=O)c3cccc(Cl)c3o2)C1 (stereo not drawn) [Example 007, 3-[3-[2-(8-chloro-4-oxo-chromen-2-yl)-5-(trifluoromethyl)phenoxy]propylamino]cyclopentanecarboxylic acid]	9.5	4.95
O=C(O)[C@@H]1CCN(CCCOc2cc(Br)ccc2-c2cc(=O)c3cccc(Cl)c3o2)C1 [Example 005, (3R)-1-[3-[5-bromo-2-(8-chloro-4-oxo-chromen-2-yl)phenoxy]propyl]pyrrolidine-3-carboxylic acid]	8.93	8.34
O=C(O)C(=O)NC1CC(Oc2cc(C(F)(F)F)ccc2-c2cc(=O)c3cccc(Cl)c3o2)C1 (stereo not drawn) [Example 133]	4.57	2.8
NS(=O)(=O)CCNCCCOc1cc(C(F)(F)F)ccc1-c1cc(=O)c2cccc(Cl)c2o1 [Example 080, 2-[3-[2-(8-chloro-4-oxo-chromen-2-yl)-5-(trifluoromethyl)phenoxy]propylamino]ethanesulfonamide]	3.14	4.02
O=C(O)[C@@H]1CCN(CCOCCOc2cc(Br)ccc2-c2cc(=O)c3cccc(Cl)c3o2)C1 [Example 047, (3R)-1-[2-[2-[5-bromo-2-(8-chloro-4-oxo-chromen-2-yl)phenoxy]ethoxy]ethyl]pyrrolidine-3-carboxylic acid]	0.99	2.83
O=C(O)C1CN(CCOc2cc(Br)ccc2-c2cc(=O)c3cccc(Cl)c3o2)C1 [Example 019, 1-[2-[5-bromo-2-(8-chloro-4-oxo-chromen-2-yl)phenoxy]ethyl]azetidine-3-carboxylic acid]	0.57	7.13
O=C(O)[C@@H]1CCN(CCOc2cc(Br)ccc2-c2cc(=O)c3c(C(F)(F)F)ccc(Cl)c3o2)C1 [Example 041, (3R)-1-[2-[5-bromo-2-[8-chloro-4-oxo-5-(trifluoromethyl)chromen-2-yl]phenoxy]ethyl]pyrrolidine-3-carboxylic acid]	0.03	5.48
O=C(O)C(=O)NCCOc1cc(C(F)(F)F)ccc1-c1cc(=O)c2cccc(Cl)c2o1 [Example 119, 2-[2-[2-(8-chloro-4-oxo-chromen-2-yl)-5-(trifluoromethyl)phenoxy]ethylamino]-2-oxo-acetic acid]	3.43	0.67
O=c1cc(-c2ccc(Br)cc2OCCN2CCS(=O)(=O)CC2)oc2c(Cl)cccc12 [Example 089, 2-[4-bromo-2-[2-(1,1-dioxo-1,4-thiazinan-4-yl)ethoxy]phenyl]-8-chloro-chromen-4-one]	1.94	5.81
